Series [1] concerns Normal White Albino New Zealand Rabbits. Nature of the series: Reduction of intraocular pressure (IOP), pneuma-tonometer. Format: in vivo. As to the method: Two groups of normal albino white New Zealand rabbits were used for this study. Control group: 4 animals Experimental group: 8 animals At time 0, intraocular pressure of both eyes of each animal in control and experimental groups was determined. All animals received the treatment either with saline (control group) or the tested compound (experimental group) immediately after 0 hour intraocular pressure reading. Control group received 50 µl of vehicle in both eyes . Experimental animals received 50 µl of vehicle in the left eyes and 50 µl of the test solution in the right eyes. Intraocular pressure was measured at 30 minutes, 1, 2, and 4 hours. The effects of tested drug on intraocular pressure of the rabbit was determined using a Digilab Model 30D pneuma-tonometer. Initial IOP readings were obtained in all animals after the administration of 50 ul of 0.5% Opthaine (proparacaine hydrochloride). A group of 4 rabbits served as controls and were treated with 50 µl of saline in both eyes. Eight additional rabbits received 50 ul of test drug in the right eye, and 50 µl of drug vehicle was administered in the contralateral left eye. IOP readings were made 30 minutes, 1 hours, 2 hours, and 4 hours after drug administration. […] This procedure permitted the comparison of drug treated eye with the contralateral vehicle treated eye, and also with saline treated eye. For purposes of statistical analysis comparisons were made between the drug treated IOP values and vehicle treated-contralateral eyes and also the saline treated IOP values.

The subject of the next series is Monkeys. Nature of the series: Toxicity by topical ocular application in monkeys. As to conditions: same concentrations and dosages, once a day for one week. Format: in vivo. How it is done:
Monkeys were treated similarly with the same concentrations and dosages of methyl 9-oxo-lla- methyl-15a-hydroxy-16-phenoxy-17,18,19,20-tetranorprosta-4,5,13(E)-trienoate once a day for one week.

The next series relates to rabbits. Nature of the series: Toxicity by topical ocular application in rabbits. Format: in vivo. The following applies: up to 0.2 mg/ml, 0.1 ml/eye, from 12 times in 6 hours to up to 6 times/day for a week. As to the method: Studies were conducted by topical ocular application in rabbits with concentrations up to 0.2 mg/ml of methyl 9-oxo-lla-methyl-15a-hydroxy-16-phenoxy-17,18,19,20-tetranorprosta-4,5,13(E)-trienoate. The dose volume was 0.1 ml/eye. Duration of administration varied from 12 times in 6 hours to up to 6 times/day for a week.

Series [2] concerns Normal White Albino New Zealand Rabbits. Nature of the series: Reduction of intraocular pressure (IOP), pneuma-tonometer. As to conditions: rabbit, in vivo.

As to `COC(=O)CCC=C=CC[C@H]1C(=O)C[C@@H](C)[C@@H]1/C=C/[C@@H](O)COc1ccccc1` [Compound 1, methyl 9-oxo-11α-methyl-15α-hydroxy-16-phenoxy-17,18,19,20-tetranorprosta-4,5,13(E)-trienoate], the “intraocular pressure (effect in words)” value in series [1] (0.01% solution, right (treated) eyes of the experimental group) is “decreased significantly”. Further, the Intraocular pressure in series [1] (Compound 1 0.02%, 0 hr (reading before treatment)) is listed as 21.63 ± .71 mmHg; in series [1] (Compound 1 0.02%, 1/2 hr), 18.13 ± .44 mmHg; in series [1] (Compound 1 0.02%, 1 hr), 17.25 ± .59 mmHg; in series [1] (Compound 1 0.02%, 2 hr), 16.63 ± .78 mmHg; in series [1] (Compound 1 0.02%, 4 hr), 18.75 ± .68 mmHg; in series [1] (Compound 1 0.2%, 0 hr (reading before treatment)), 23.75 ± .53 mmHg. Besides, the Intraocular pressure is 19.25 ± .49 mmHg in series [1] (Compound 1 0.2%, 1/2 hr); 18.88 ± .64 mmHg in series [1] (Compound 1 0.2%, 1 hr); 18.75 ± .45 mmHg in series [1] (Compound 1 0.2%, 2 hr); 19.88 ± .35 mmHg in series [1] (Compound 1 0.2%, 4 hr). Besides, the ocular toxicity result in the series with Monkeys and with rabbits was “No ocular toxicity occurred” in each case.

For the compound `CCCCC[C@H](O)/C=C/[C@H]1[C@H](O)CC(=O)[C@@H]1CCCCCCC(=O)O` [PGE1], the Intraocular pressure in series [1] (PGE1 0.01%, 0 hr (reading before treatment)) is listed as 20.67 ± 1.09 mmHg; in series [1] (PGE1 0.01%, 1/2 hr), 38.17 ± 1.28 mmHg; in series [1] (PGE1 0.01%, 1 hr), 31.17 ± .91 mmHg; in series [1] (PGE1 0.01%, 2 hr), 15.33 ± .56 mmHg; in series [1] (PGE1 0.01%, 4 hr), 16.33 ± 1.17 mmHg; in series [1] (PGE1 0.01%, 6 hr), 19.00 ± 1.03 mmHg. Besides, the “transient increase in intraocular pressure at the time of administration” value in series [1] (rabbit, in vivo) is “transitory rise in intraocular pressure”. The eye irritation result in series [2] is recorded as “severe eye irritation”.

In the case of `CCCCC[C@H](O)/C=C/[C@H]1[C@H](O)CC(=O)[C@@H]1C/C=C\CCCC(=O)O` [PGE2], the Intraocular pressure is on record as 21.00 ± .85 mmHg in series [1] (PGE2 0.025%, 0 hr (reading before treatment)); 47.63 ± 1.28 mmHg in series [1] (PGE2 0.025%, 1/2 hr); 18.38 ± .82 mmHg in series [1] (PGE2 0.025%, 2.5 hr); 16.00 ± .73 mmHg in series [1] (PGE2 0.025%, 4 hr); 16.63 ± .38 mmHg in series [1] (PGE2 0.025%, 5 hr). In addition, the eye irritation result in series [1] (observed on administration, for PGE1 and PGE2 even at low doses) is “severe eye irritation”. Further, the “transient increase in intraocular pressure at the time of administration” value in series [1] (when first administered) is recorded as “transitory rise in intraocular pressure”.

The values are drawn from patent publication EP0170258A2, “11-Substituted-16-phenoxy and 16-substituted phenoxy-prostatrienoic acid derivatives” (priority 1984, dated 1986).
